The target of assay [1] is T1, MASP-2 (CCP1-CCP2-SP) (Homo sapiens, UniProt O00187).
T1 construct: 15 μL of Enzyme MASP-2 (CCP1-CCP2-SP) in Assay Buffer
Kind of assay: Enzymatic assay for MASP-2 inhibitory activity (fluorogenic substrate). The class given is biochemical. The following applies: room temperature, 20 mM Hepes pH 7.4, 20 min. The protocol:
The MASP-2 assay utilizes a fluorogenic substrate, based on the cleavage site for its natural substrate C2. The assay was run at room temperature in an assay buffer containing 20 mM HEPES, pH 7.4, 140 mM NaCl and 0.1% Tween 20. Assay parameters were adjusted such that the assay was linear with respect to time, enzyme, and substrate concentrations. Under the optimized assays conditions, IC50 values were equivalent to Ki values, except in the few cases of “tight binding” inhibitors. Cases of “tight binding” or possible “slow binding” inhibitors were handled by the methods described in Copeland R. A. (2013) Evaluation of Enzyme Inhibitors in Drug Discovery. 2nd Ed., John Wiley and Sons, Inc., Chapters 5-7.
The MASP-2 assay protocol was carried out as follows. Test compounds were serially diluted in DMSO and then 100 nL of each dilution was transferred to the assay plate(s). 10 μL of Assay Buffer was added, followed by 15 μL of Enzyme MASP-2 (CCP1-CCP2-SP) in Assay Buffer. 15 μL of Substrate in Assay Buffer was then added and the mixture was mixed to start the reaction. After 20 min at room temperature, 15 μL of a stop solution (0.1 M acetic acid) was added, the sample was mixed, and the plates were read on a SpectraMax i3× Microplate Reader with the data exported as an Excel file. Each assay plate included a “no inhibitor” (DMSO only) control, a “no enzyme” control, and a reference inhibitor control. % Activity values=100*(average test comp. fluorescence−average “no enzyme” fluorescence)/(average “DMSO only” fluorescence−average “no enzyme” fluorescence). IC50 and Ki replicate values were very reproducible, with values well within +2-fold.

The target in assay [2] is T2, human a-thrombin (Homo sapiens, UniProt P00734).
T2 construct: enzyme (human a-thrombin (BioPharm® Lab.)); purchased BioPharm Lab
As to the kind of experiment: Enzymatic assay for thrombin (fluorogenic peptide substrate Boc-VPR-AMC). The note with it: room temperature, 20 mM Hepes pH 7.4, 20 min. The class given is biochemical. The protocol: The thrombin assay utilizes a fluorogenic peptide substrate (Boc-VPR-AMC (R&D Systems) and was run at room temperature in an assay buffer containing 20 mM Hepes, pH 7.4, 140 mM NaCl and 0.1% Tween 20. Assay parameters were adjusted such that the assay was linear with respect to time, enzyme, and substrate concentrations. Under these optimized assays conditions, IC50 values were equivalent to Ki values, except in a few cases of “tight binding” inhibitors. Cases of “tight binding” or possible “slow binding” inhibitors were handled by the methods described in Copeland R.A. (2013) Evaluation of Enzyme Inhibitors in Drug Discovery. 2nd Ed. John Wiley and Sons, Inc., Chapters 5-7.
The thrombin assay protocol was carried out as follows. Test compounds were serially diluted in DMSO and then 100 nL of each dilution was transferred to the assay plate(s). 10 μL of Assay Buffer was added, followed by 15 μL of enzyme (human a-thrombin (BioPharm® Lab.)) in assay buffer. 15 μL of substrate in assay buffer was then added and the sample mixed to start the reaction. After 20 min at room temperature, 15 μL of a stop solution (0.1 M acetic acid) was added, the sample was mixed, and the plates were read on a SpectraMax® i3× Microplate Reader with the data exported as Excel files. Each assay plate included a “no inhibitor” (DMSO only) control, a “no enzyme” control, and a reference inhibitor control. % Activity values=100*(ave. test comp. fluorescence−ave. “no enz” fluorescence)/(ave. “DMSO only” fluorescence−ave. “no enz” fluorescence). IC50 and Ki values were very reproducible, with values falling well within +2-fold.

The structures appear in SMILES notation. Structures can show the parent of a compound that is named as a salt.

T1 sequence (O00187 287-686 limits assumed): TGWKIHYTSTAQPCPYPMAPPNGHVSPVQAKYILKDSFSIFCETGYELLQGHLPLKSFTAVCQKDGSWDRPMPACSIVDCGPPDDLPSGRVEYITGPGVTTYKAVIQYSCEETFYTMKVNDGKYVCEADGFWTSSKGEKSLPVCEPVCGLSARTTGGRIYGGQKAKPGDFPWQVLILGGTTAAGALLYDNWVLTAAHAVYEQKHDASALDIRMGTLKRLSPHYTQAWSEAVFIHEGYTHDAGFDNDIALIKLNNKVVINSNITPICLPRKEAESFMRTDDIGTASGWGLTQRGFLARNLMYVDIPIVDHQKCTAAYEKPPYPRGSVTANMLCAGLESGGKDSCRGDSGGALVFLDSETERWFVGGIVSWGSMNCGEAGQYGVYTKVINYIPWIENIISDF

By Ki is commonly meant the equilibrium dissociation constant of an inhibitor or competing ligand from its target. A high value points to lower affinity. Take `Cc1nc(N)ccc1CNC(=O)[C@@H]1CCc2ncc(NCc3cccc(Cl)c3)c(=O)n21` [Compound 58]: the results for the Ki in assay [1] and in assay [2] were below 0.5 µM and 0.5 to 2.5 µM, respectively.

Turning to `Cc1nc(N)ccc1CNC(=O)[C@@H]1CCc2ncc(NCc3cc(F)cc(C(F)(F)F)c3)c(=O)n21` [Compound 47, (S)-N-((6-amino-2-methylpyridin-3-yl)methyl)-3-((3-fluoro-5-(trifluoromethyl)benzyl)amino)-4-oxo-4,6,7,8-tetrahydro-pyrrolo[1,2-a]pyrimidine-6-carboxamide, di-trifluoroacetate], the Ki in assay [1] is below 0.5 µM; in assay [2], 0.5 to 2.5 µM.

For `Cc1nc(N)ccc1CNC(=O)[C@@H]1CCc2ncc(NCc3cccc(OC4CC4)c3)c(=O)n21` [Compound 37, (S)-N-((6-amino-2-methylpyridin-3-yl)methyl)-3-((3-cyclopropoxybenzyl)amino)-4-oxo-4,6,7,8-tetrahydropyrrolo[1,2-a]pyrimidine-6-carboxamide, trifluoroacetate], the inhibitory constant (Ki) in assay [1] and in assay [2] was below 0.5 µM in each case.

Turning to `Cc1nc(N)ccc1CNC(=O)[C@@H]1CCc2ncc(NCc3cccc(OC(F)(F)F)c3F)c(=O)n21` [Compound 39, (S)-N-((6-amino-2-methylpyridin-3-yl)methyl)-3-((2-fluoro-3-(trifluoromethoxy)benzyl)amino)-4-oxo-4,6,7,8-tetrahydro-pyrrolo[1,2-a]pyrimidine-6-carboxamide, di-trifluoroacetate], the Ki in assay [1] is below 0.5 µM; in assay [2] it was 0.5 to 2.5 µM.

Turning to `Cc1ccc(F)c(CNc2cnc3n(c2=O)[C@H](C(=O)NCc2ccc(N)nc2C)CC3)c1` [Compound 3, (S)—N-((6-amino-2-methylpyridin-3-yl)methyl)-3-((2-fluoro-5-methylbenzyl)amino)-4-oxo-4,6,7,8-tetrahydropyrrolo[1,2-a]pyrimidine-6-carboxamide], the Ki in assay [1] is below 0.5 µM; in assay [2] it was 0.5 to 2.5 µM.

For `Cc1cc(F)cc(CNc2cnc3n(c2=O)[C@H](C(=O)N[C@@H]2CCc4nc(N)ccc42)CC3)c1` [Compound 96], the Ki is below 0.5 µM in assay [1] and 0.5 to 2.5 µM in assay [2].

As for `Cc1ccc(CNc2cnc3n(c2=O)[C@H](C(=O)N[C@@H]2CCc4nc(N)ccc42)CC3)cc1C#N` [Compound 88, (S)-N-((R)-2-amino-6,7-dihydro-5H-cyclopenta[b]pyridin-5-yl)-3-((3-cyano-4-methylbenzyl)amino)-4-oxo-4,6,7,8-tetrahydro-pyrrolo[1,2-a]pyrimidine-6-carboxamide], the values for the inhibitory constant (Ki) in assay [1] and in assay [2] were below 0.5 µM and 0.5 to 2.5 µM, respectively.

In the case of `CCN(Cc1cc(C)cc(OC)c1)c1cnc2n(c1=O)[C@H](C(=O)NCc1ccc(N)nc1C)CC2` [Compound 67, (S)—N-((6-amino-2-methylpyridin-3-yl)methyl)-3-(ethyl(3-methoxy-5-methylbenzyl)amino)-4-oxo-4,6,7,8-tetrahydropyrrolo[1,2-a]pyrimidine-6-carboxamide], the Ki was 0.5 to 2.5 µM in assay [1] and 10 to 25 µM in assay [2].

`COc1cccc(CNc2cnc3n(c2=O)[C@H](C(=O)NCc2ccc(N)nc2C)CC3)c1C` [Compound 48, (S)-N-((6-amino-2-methylpyridin-3-yl)methyl)-3-((3-methoxy-2-methylbenzyl)amino)-4-oxo-4,6,7,8-tetrahydropyrrolo[1,2-a]pyrimidine-6-carboxamide, trifluoroacetate]: the Ki in assay [1] is below 0.5 µM; in assay [2], 0.5 to 2.5 µM.

Take `Nc1ccc2c(n1)CC[C@H]2NC(=O)[C@@H]1CCc2ncc(NCc3cccc(-c4ccccc4)c3)c(=O)n21` [Compound 102]: the results for the Ki in assay [1] and in assay [2] were below 0.5 µM and 10 to 25 µM, respectively.

For `Cc1cc(C#N)cc(CNc2cnc3n(c2=O)[C@H](C(=O)NCc2ccc(N)nc2C)CC3)c1` [Compound 8, (S)—N-((6-amino-2-methylpyridin-3-yl)methyl)-3-((3-cyano-5-methylbenzyl)amino)-4-oxo-4,6,7,8-tetrahydropyrrolo[1,2-a]pyrimidine-6-carboxamide], the values for the Ki in assay [1] and in assay [2] were below 0.5 µM and 0.5 to 2.5 µM, respectively.

(Values after patent US20240228499A1, “MASP-2 INHIBITORS AND METHODS OF USE” (Omeros Corporation, priority 2022, published 2024).)
